Data as given in ChEMBL document CHEMBL6096732 (J Med Chem, 2025).
The source made the active and inactive calls. The rule behind the calls is not given here.

Key:
B16-F10 [1] = experiment: Downregulation of PARP1 expression in mouse B16-F10 cells at 2 uM incubated for 24 hrs by Western blot analysis; type: functional, cell-based
4T1 [2] = experiment: Downregulation of PARP1 expression in mouse 4T1 cells at 2 uM incubated for 24 hrs by Western blot analysis; type: functional, cell-based
B16-F10 [3] = experiment: Induction of DNA damage in mouse B16-F10 cells assessed as increase in gamma-H2AX expression at 2 uM incubated for 24 hrs by Western blot analysis; type: functional, cell-based
4T1 [4] = experiment: Induction of DNA damage in mouse 4T1 cells assessed as increase in gamma-H2AX expression at 2 uM incubated for 24 hrs by Western blot analysis; type: functional, cell-based
4T1 [5] = experiment: Antitumor activity against mouse 4T1 cells implanted in female BALB/c mouse model assessed as tumor growth inhibition administrated orally as once daily dose via gavage for 14 days relative to control; type: functional; conditions: route po; time 14 day
[6] = Toxicity in female BALB/c mouse model implanted with mouse 4T1 cells assessed as effect on body weight administrated orally as once daily dose via gavage for 14 days; conditions: in vivo, po, 336 h, time 14 day
4T1 [7] = experiment: Antitumor activity against mouse 4T1 cells implanted in female BALB/c mouse model assessed as decrease in PAPR1 expression in tumor administrated orally as once daily dose via gavage for 14 days by Western blot analysis; type: functional, cell-based; conditions: route po, time 14.0 day
4T1 [8] = experiment: Antitumor activity against mouse 4T1 cells implanted in female BALB/c mouse model assessed as induction of DNA damage by measuring increase in gamma-H2AX expression in tumor administrated orally as once daily dose via gavage for 14 days by Western blot analysis; type: functional, cell-based; conditions: route po, time 14.0 day
B16-F10 [9] = experiment: Antitumor activity against mouse B16-F10 cells implanted in male C57BL/6 mouse model assessed as tumor growth inhibition at 20 mg/kg, po administered once daily via gavage for 14 days relative to control; type: functional; conditions: B16-F10, 336 h, time 14 day, read-out: TGI
[10] = Oral bioavailability in male C57BL/6 mouse at 20 mg/kg; type: ADME, organism-based; conditions: in vivo
Mus musculus [11] = experiment: Immunomodulatory activity in male C57BL/6 mouse model implanted with mouse B16-F10 cells assessed as increase in CD3+ CD4+ T cells in tumor at 20 mg/kg, po administered once daily for 14 days by flow cytometric analysis (reference value: 3.1 %); type: functional; conditions: time 14 day
Mus musculus [12] = experiment: Immunomodulatory activity in male C57BL/6 mouse model implanted with mouse B16-F10 cells assessed as increase in CD3+ CD8+ T cells in tumor at 20 mg/kg, po administered once daily for 14 days by flow cytometric analysis (reference value: 3.2 %); type: functional; conditions: time 14 day
[13] = molecular target: T1, Histone deacetylase 3 (Mus musculus) (UniProt O88895); experiment: In vivo inhibition of HDAC3 in male C57BL/6 mouse model implanted with mouse B16-F10 cells assessed as increase in acetylated histone H3 level in tumor at 20 mg/kg, po administered once daily via gavage for 14 days by DAPI staining based immunofluorescence analysis; type: functional, organism-based; conditions: time 14.0 day
T1 sequence (whole entry): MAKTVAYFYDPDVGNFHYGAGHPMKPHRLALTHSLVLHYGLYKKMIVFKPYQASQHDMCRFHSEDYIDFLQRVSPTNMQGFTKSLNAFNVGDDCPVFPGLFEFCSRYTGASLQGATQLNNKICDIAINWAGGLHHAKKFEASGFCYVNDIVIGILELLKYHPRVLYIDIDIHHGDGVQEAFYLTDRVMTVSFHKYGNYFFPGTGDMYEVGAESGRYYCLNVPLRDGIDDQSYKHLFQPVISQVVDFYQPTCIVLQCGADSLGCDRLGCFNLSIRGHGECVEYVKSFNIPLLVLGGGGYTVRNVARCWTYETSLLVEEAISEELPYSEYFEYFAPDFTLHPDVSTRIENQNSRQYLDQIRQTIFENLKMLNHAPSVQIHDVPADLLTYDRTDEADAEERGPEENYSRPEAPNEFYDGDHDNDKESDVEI

Mus musculus [14] = experiment: In vivo induction of PD-L1 degradation in male C57BL/6 mouse model implanted with mouse B16-F10 cells assessed as decrease in PD-L1 protein expression in tumor at 20 mg/kg, po administered once daily via gavage for 14 days by DAPI staining based immunofluorescence analysis; type: functional, organism-based; conditions: time 14.0 day

Row | Compound | Activity (B16-F10 [1]) | Activity (4T1 [2]) | Activity (B16-F10 [3]) | Activity (4T1 [4]) | TGI (4T1 [5]) [%] | Activity [6] | Activity (4T1 [7]) | Activity (4T1 [8]) | inhibition in vivo at 20 mg/kg (B16-F10 [9]) [%] | bioavailability [10] [%] | Activity (Mus musculus [11]) [%] | Activity (Mus musculus [12]) [%] | inhibition [13] | Activity (Mus musculus [14])
1 | O=C(c1cc(Cc2n[nH]c(=O)c3ccccc23)ccc1F)N1CCN(C(=O)C2CC2)CC1 [OLAPARIB] | Active | Active | Active | Active | 36 | Non-toxic | Active | Active | – | – | – | – | – | –
2 | Cc1c(COc2cc(OCc3cccc(C#N)c3)c(CNC(C)(C)C(=O)O)cc2Cl)cccc1-c1ccccc1 | – | – | – | – | – | – | – | – | 37 | < 5 | 27 | 27 | inactive | Active
